According to patent US11707440B2 (priority 2017, dated 2023):

Tests used:
[1] = test system: patients with treatment-resistant depression (TRD); experiment: Blood pressure and heart rate, Example 7; type: in vivo, human
Protocol: (§1) Adverse events were monitored throughout the study. Other safety assessments (i.e., laboratory tests, vital signs, physical examination) were performed at pre-specified time points. Vital signs, the Clinician Administered Dissociative States Scale (CADSS; Bremner, “Measurement of dissociative states with the clinician-administered dissociative states scale (CADSS)”, J. Traumatic Stress, 1998, 11(1):125-136), and the 4-item positive symptom subscale from the Brief Psychiatric Rating Scale (BPRS; Overall, “The Brief Psychiatric Rating Scale. Psychological Reports”, 1962, 10:799-812) were assessed pre-dose, at 40 minutes, and 2 hours post-dose.

[2] = test system: female Sprague-Dawley rats, PCG/RSC of the brain; experiment: Single dose neurotoxicity study, intranasal instillation; conditions: single dose, 72 mg
Protocol: Esketamine HCl was instilled intranasally at doses of 0 (vehicle), 36, 54 or 72 mg (expressed as esketamine base) to female rats on a single day. The dose levels were obtained by 2, 3 or 4 subsequent intranasal instillations, respectively, into both nostrils at a volume of 50 μL per nostril. At each instillation, the second nostril was dosed immediately after the first nostril. The interval between subsequent instillations into both nostrils was 5 minutes.
The vehicle control group received 4 subsequent intranasal instillations of the vehicle into both nostrils (50 μL per nostril) with 5-minute intervals.
The injection volume was 5 mL/kg.
The vehicle- and the 36 and 54 mg-dosed groups consisted of 24 animals per group, while the 72 mg-dosed and positive control groups involved 30 animals per group. Four satellite animals were added to the esketamine HCl-dosed groups of main study animals for toxicokinetic (TK) purposes. In these animals the plasma exposure to esketamine was measured on the day of dosing at various time points up to and including 24 hours after the first instillation.
Prior to the perfusion, rats were anesthetized with isoflurane. After injection of 0.1 ml heparin, the blood of the rat was flushed out with a physiological saline solution by intraarterial insertion of a needle in the abdominal aorta. Thereafter the rat was perfused with glutaraldehyde 3% in potassium phosphate 0.09M and 1.4% sucrose. Due to logistic constraints at maximum 30 animals could undergo the whole-body perfusion procedure on a given day. Therefore, a staggered start of treatment was applied to all 5 groups of main study animals. Consequently, subgroups of 4 main study animals of the vehicle- and 36 and 54 mg-dosed groups, and 5 main study animals of the 72 mg-dosed and positive control groups, were dosed on 6 consecutive days, respectively.
The vehicle control, positive control, and esketamine HCl-dosed animals were sacrificed at either 48 hours (i.e., the first 12 or 15 rats per group) or 96 hours after the dose administration time (i.e., the last 12 or 15 rats per group). The brain tissue of the vehicle control-, positive control- and esketamine HCl-treated rats were processed at the same time and handled in the same way in batches of 4 or 5 animals per group.
Furthermore, clinical observations were recorded for the esketamine HCl-dosed rats on the day of dosing at 0 till 5 minutes, 15 and 30 minutes, and at 1, 2, 4, 6 hours post-dose, at the end of the working day and at 24 hours after the last instillation in the single dose study and on the first day of dosing, after one week and towards the end of the dosing period in the repeated dose study. Body weight and body weight gain were measured daily. Food consumption was measured weekly in the repeated dose study.
On the day of terminal kill, a complete physical examination was performed on the rats in fasted condition and body weight was recorded. The surviving animals were anaesthetized by inhalation of an isoflurane (IsoFlo® Zoetis, Belgium)/oxygen mixture and killed by exsanguination via the carotid artery. […] All terminally killed rats or those killed pre-terminally were perfused with 4% paraformaldehyde in the single dose study and with glutaraldehyde 3% in potassium phosphate buffer 0.09 M with 1.4% sucrose in the repeated dose study.
Brain tissue was sampled and processed routinely. The trimmed and embedded tissue was sectioned and stained with hematoxylin-eosin (HE). Histoprocessing and staining were carried out in three batches of 4 animals per group (each batch thus containing 4 animals from vehicle control-, positive control- and the three esketamine HCl-treated groups). In the single dose study duplicate brain sections were stained with Fluoro-Jade (FJ).
All tissues showing gross abnormalities were examined macroscopically.

[3] = test system: patients with treatment-resistant depression (TRD); experiment: CADSS, Example 7; conditions: human, in vivo, other: intranasal
Protocol: as §1

subjects with TRD [4] = conditions: human, in vivo, other: intranasal
Protocol: The Clinician Administered Dissociative States Scale (CADSS) was measured prior to the start of each dose, at 40 minutes, and 1.5 hours postdose.

[5] = test system: subjects with MDD at imminent risk for suicide; conditions: esketamine 84 mg
Protocol: The CADSS was measured prior to the start of each dose, at 40 minutes. 2 hours, and 4 hours postdose.

adult subjects with TRD = type: in vivo, human
Protocol: Blood pressure and pulse/heart rate measurements were assessed supine with a completely automated device. Manual techniques were used only if an automated device is not available. Blood pressure and pulse/heart rate measurements were preceded by at least 5 minutes of rest in a quiet setting without distractions (e.g., television, cell phones).
Transient blood pressure increases peaked for the esketamine group at approximately 40 minutes post dose and returned to normal range at 90 minutes. […] The maximum mean increase (across all dosing days) in diastolic BP were 8.1 in the esketamine group and 4.5 in the active comparator group. FIGS. 7 and 8 present the means for measured blood pressure over time by treatment group in the double-blind phase.

subjects with TRD [6] = type: in vivo, human; conditions: among the 76 subjects who discontinued intranasal esketamine
From the text: The efficacy and safety analyses are based on the full (IND) analysis set and the full (OP/MA) analysis set. The full (IND) analysis set is defined as all subjects who receive at least 1 dose of intranasal study medication or 1 dose of oral antidepressant in the open-label IND phase (for direct-entry and transferred-entry non-responder subjects). The full (OP/MA) analysis is defined as all subjects who receive at least 1 dose of intranasal study medication or 1 dose of oral antidepressant in the OP/MA phase. Safety variables include cognition function over time, treatment-emergent adverse events (TEAEs), including TEAEs of special interest, vital signs over time, Clinician-Administered Dissociative Symptom Scale (CADDS) over time, and Modified Observer's Assessment of Alertness/Sedation (MOAA/S) score≤3. Efficacy variables include the MADRS which consists of 10 items that cover all the core depressive symptoms: each item is scored from 0 (symptom is not present or is normal) to 6 (severe or continuous presence of the symptom). A total score (0 to 60) is calculated by summing the scores of all 10 items. A higher score represents a more severe condition.
Overall, 90.1% of subjects experienced at least one TEAE in the IND and OP/MA phases.

[7] = human, in vivo, other: intranasal
[8] = in most cases at 10 or 40 minutes post-dose

Structure (SMILES): CN[C@]1(c2ccccc2Cl)CCCCC1=O [esketamine, (S)-2-(2-chlorophenyl)-2-(methylamino)cyclohexanone]
- Diastolic blood pressure, maximum mean change ([1]; dosing days): 10.3 mmHg
- Heart rate, maximum mean change ([1]; dosing days): 9.4 bpm
- Systolic blood pressure, maximum mean change ([1]; dosing days): 19.0 mmHg
- Time of return of elevated blood pressure to the normal range [1, 7]: ≤ 2 hours post-dose
- Maximum diastolic blood pressure value [1, 8]: 115 mmHg
- Maximum systolic blood pressure value [1, 8]: 199 mmHg
- AUC-based safety margin compared with the maximum 84 mg clinical dose [2]: ~86 fold
- Cmax-based safety margin compared with the maximum 84 mg clinical dose [2]: approximately 60 fold
- Time of peak of perceptual changes/dissociative symptoms (CADSS) [3]: 30 to 40 min
- Time to resolution of perceptual changes/dissociative symptoms (CADSS) [3]: ≤ 2 h
- Time to resolution of dissociative and perceptual change symptoms (CADSS) (subjects with TRD [4]): ≤ 1.5 hours postdose
- Time to resolution of dissociative symptoms (CADSS) [5]: ≤ 2 h
- Maximum mean increase in diastolic BP (across all dosing days) (adult subjects with TRD; double-blind phase): 8.1
- Time of peak of transient blood pressure increases (adult subjects with TRD; [7]): approximately 40 minutes post dose
- Time of return of blood pressure to normal range (adult subjects with TRD; [7]): 90 min
- Subjects with a discontinuation AE considered related (possibly, probably, or very likely) to esketamine (subjects with TRD [6]): 51 subjects
